Experimental data published in ChEMBL document CHEMBL5131515, “Identification of Pyridinyltriazine Derivatives as Potent panFGFR Inhibitors against Gatekeeper Mutants for Overcoming Drug Resistance” (J Med Chem, 2022).

Experiments:
[1] = tested on: J82; assay: Antiproliferative activity against human J82 cells harboring FGFR3 K652E mutant assessed as cell growth inhibition by CellTiter-Glo assay; type: functional
[2] = tested on: KMS-11; assay: Antiproliferative activity against human KMS-11 cells harboring FGFR3 Y373C mutant assessed as cell growth inhibition by CellTiter-Glo assay; type: functional
[3] = tested on: BaF3; assay: cells; type: functional; settings: Mus musculus
[4] = Antiproliferative activity against mouse BaF3 cells assessed as cell growth inhibition by CellTiter-Glo assay; settings: BaF3 cells
[5] = biological target: Fibroblast growth factor receptor 3 (Homo sapiens, UniProt P22607); assay: Inhibition of wild-type FGFR3 (unknown origin) by radiometric kinase activity assay
[6] = tested on: Fibroblast growth factor receptor 2 (Homo sapiens), P21802 [V564F]; assay: Inhibition of FGFR2 V564F mutant (unknown origin) at 10 uM by radiometric kinase activity assay relative to control
[7] = tested on: Fibroblast growth factor receptor 3 (Homo sapiens), P22607 [V555M]; assay: Inhibition of FGFR3 V555M mutant (unknown origin) at 10 uM by radiometric kinase activity assay relative to control
[8] = tested on: BaF3; assay: Antiproliferative activity against mouse BaF3 cells harboring TEL-FGFR3 assessed as cell growth inhibition by CellTiter-Glo assay; type: functional
[9] = tested on: Fibroblast growth factor receptor 2 (Homo sapiens), P21802 [N549H]; assay: Inhibition of FGFR2 N549H mutant (unknown origin) at 10 uM by radiometric kinase activity assay relative to control
[10] = tested on: AN3-CA; assay: Antiproliferative activity against human AN3-CA cells harboring FGFR2 K310R/N549K mutant assessed as cell growth inhibition by CellTiter-Glo assay; type: functional
[11] = biological target: CYP3A4 (Homo sapiens, UniProt P08684); assay: Inhibition of CYP3A4 (unknown origin) assessed as remaining activity at 10 uM relative to control; type: ADME; settings: read-out: Activity
[12] = biological target: CYP2D6 (Homo sapiens, UniProt P10635); assay: Inhibition of CYP2D6 (unknown origin) assessed as remaining activity at 10 uM relative to control; type: ADME; settings: read-out: Activity
[13] = biological target: CYP2C19 (Homo sapiens, UniProt P33261); assay: Inhibition of CYP2C19 (unknown origin) assessed as remaining activity at 10 uM relative to control; type: ADME; settings: read-out: Activity
[14] = biological target: CYP2C9 (Homo sapiens, UniProt P11712); assay: Inhibition of CYP2C9 (unknown origin) assessed as remaining activity at 10 uM relative to control; type: ADME; settings: read-out: Activity
[15] = biological target: Fibroblast growth factor receptor 3 (Homo sapiens, UniProt P22607, K650M)
[16] = biological target: Fibroblast growth factor receptor 3 (Homo sapiens, UniProt P22607, K650E)
[17] = biological target: T1, CYP1A2 (Homo sapiens, UniProt P05177); assay: Inhibition of CYP1A2 (unknown origin) assessed as remaining activity at 10 uM relative to control; type: ADME; settings: read-out: Activity
T1 sequence (P05177 whole entry): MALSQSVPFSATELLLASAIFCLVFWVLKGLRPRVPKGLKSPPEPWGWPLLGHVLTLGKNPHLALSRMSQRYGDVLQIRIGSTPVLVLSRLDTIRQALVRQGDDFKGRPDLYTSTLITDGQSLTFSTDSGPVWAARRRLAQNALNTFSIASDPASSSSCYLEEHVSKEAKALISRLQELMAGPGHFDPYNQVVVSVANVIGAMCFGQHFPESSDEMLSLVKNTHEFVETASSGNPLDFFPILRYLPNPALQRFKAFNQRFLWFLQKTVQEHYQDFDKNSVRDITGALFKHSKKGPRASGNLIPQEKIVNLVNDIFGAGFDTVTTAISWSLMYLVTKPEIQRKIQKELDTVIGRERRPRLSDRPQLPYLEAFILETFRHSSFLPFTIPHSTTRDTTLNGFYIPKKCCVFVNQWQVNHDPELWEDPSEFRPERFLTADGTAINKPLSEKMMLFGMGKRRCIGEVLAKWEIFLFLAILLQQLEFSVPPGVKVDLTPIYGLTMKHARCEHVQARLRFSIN

[18] = biological target: Fibroblast growth factor receptor 3 (Homo sapiens, UniProt P22607, V555M)
[19] = Stability in human liver microsomes assessed as parent compound remaining at 1 uM incubated for 30 mins; type: ADME, Microsome; settings: read-out: Stability
[20] = tested on: BaF3; assay: Antiproliferative activity against mouse BaF3 cells harboring TEL-FGFR4 V550E mutant assessed as cell growth inhibition by CellTiter-Glo assay; type: functional
[21] = biological target: Fibroblast growth factor receptor 2 (Homo sapiens, UniProt P21802, V564F)
Description: Inhibition of FGFR2 V564F mutant (unknown origin) by radiometric kinase activity assay

[22] = biological target: Fibroblast growth factor receptor 2 (Homo sapiens, UniProt P21802); assay: Inhibition of wild-type FGFR2 (unknown origin) by radiometric kinase activity assay
[23] = biological target: Fibroblast growth factor receptor 4 (Homo sapiens, UniProt P22455); assay: Inhibition of wild-type FGFR4 (unknown origin) by radiometric kinase activity assay
[24] = biological target: Fibroblast growth factor receptor 2 (Homo sapiens, UniProt P21802, N549H)
[25] = tested on: BaF3; assay: Antiproliferative activity against mouse BaF3 cells harboring TEL-FGFR4 N535K mutant assessed as cell growth inhibition by CellTiter-Glo assay; type: functional
[26] = Stability in mouse liver microsomes assessed as parent compound remaining at 1 uM incubated for 30 mins; type: ADME, Microsome; settings: read-out: Stability
[27] = Stability in rat liver microsomes assessed as parent compound remaining at 1 uM incubated for 30 mins; type: ADME, Microsome; settings: read-out: Stability
[28] = Oral bioavailability in mouse at 10 mg/kg; type: ADME, organism-based; settings: in vivo
[29] = Stability in dog liver microsomes assessed as parent compound remaining at 1 uM incubated for 30 mins; type: ADME, Canis lupus familiaris, Microsome; settings: read-out: Stability
[30] = Toxicity in BALB/c mouse xenografted with human AN3-CA cells assessed as body weight loss at 20 to 40 mg/kg, po qd for 15 days measured once every 2 days; type: organism-based; settings: in vivo, 360 h, dose 20-40 mg/kg, time 15 day
[31] = tested on: BaF3; assay: Growth inhibition of mouse BaF3 cells harboring TEL-FGFR3 V555M mutant incubated for 72 hrs by Alamar blue assay; type: functional

Sequence of Fibroblast growth factor receptor 2 (Homo sapiens, UniProt P21802, V564F) (P21802 22-821 V564F limits assumed): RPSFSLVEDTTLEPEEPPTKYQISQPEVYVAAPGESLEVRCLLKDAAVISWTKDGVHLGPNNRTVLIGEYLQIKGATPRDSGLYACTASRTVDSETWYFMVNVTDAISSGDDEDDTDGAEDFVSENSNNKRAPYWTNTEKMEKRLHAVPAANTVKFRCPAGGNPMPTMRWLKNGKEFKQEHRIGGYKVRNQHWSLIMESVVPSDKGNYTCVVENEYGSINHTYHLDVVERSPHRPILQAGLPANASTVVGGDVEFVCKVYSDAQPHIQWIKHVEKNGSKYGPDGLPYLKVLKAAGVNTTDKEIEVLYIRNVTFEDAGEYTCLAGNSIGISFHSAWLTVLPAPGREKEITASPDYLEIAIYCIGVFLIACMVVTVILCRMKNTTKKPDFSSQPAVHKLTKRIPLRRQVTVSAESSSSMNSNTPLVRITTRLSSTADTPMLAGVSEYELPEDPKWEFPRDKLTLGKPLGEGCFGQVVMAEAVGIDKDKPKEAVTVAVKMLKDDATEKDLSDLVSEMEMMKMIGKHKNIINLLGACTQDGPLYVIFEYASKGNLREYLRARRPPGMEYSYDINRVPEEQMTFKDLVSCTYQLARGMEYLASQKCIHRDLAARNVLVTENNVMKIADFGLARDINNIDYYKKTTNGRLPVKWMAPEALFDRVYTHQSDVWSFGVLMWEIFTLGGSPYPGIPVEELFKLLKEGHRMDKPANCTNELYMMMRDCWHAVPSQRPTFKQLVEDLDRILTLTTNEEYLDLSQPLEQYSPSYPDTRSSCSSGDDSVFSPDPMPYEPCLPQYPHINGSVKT
Sequence of CYP2D6 (P10635 whole entry): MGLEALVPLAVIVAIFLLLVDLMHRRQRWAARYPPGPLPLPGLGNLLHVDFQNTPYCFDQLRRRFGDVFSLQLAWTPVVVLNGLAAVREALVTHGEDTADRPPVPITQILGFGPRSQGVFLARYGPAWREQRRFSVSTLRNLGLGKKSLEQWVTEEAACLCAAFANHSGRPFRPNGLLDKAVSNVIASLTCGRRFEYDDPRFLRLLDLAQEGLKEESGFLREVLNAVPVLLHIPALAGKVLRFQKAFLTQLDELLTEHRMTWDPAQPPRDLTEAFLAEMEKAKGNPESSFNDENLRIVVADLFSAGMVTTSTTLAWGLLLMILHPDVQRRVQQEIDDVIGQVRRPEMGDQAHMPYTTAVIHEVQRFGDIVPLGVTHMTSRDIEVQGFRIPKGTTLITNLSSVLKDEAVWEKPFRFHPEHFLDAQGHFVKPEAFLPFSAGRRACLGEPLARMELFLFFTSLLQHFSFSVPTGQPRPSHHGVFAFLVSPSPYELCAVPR
Sequence of Fibroblast growth factor receptor 2 (Homo sapiens, UniProt P21802) (P21802 whole entry): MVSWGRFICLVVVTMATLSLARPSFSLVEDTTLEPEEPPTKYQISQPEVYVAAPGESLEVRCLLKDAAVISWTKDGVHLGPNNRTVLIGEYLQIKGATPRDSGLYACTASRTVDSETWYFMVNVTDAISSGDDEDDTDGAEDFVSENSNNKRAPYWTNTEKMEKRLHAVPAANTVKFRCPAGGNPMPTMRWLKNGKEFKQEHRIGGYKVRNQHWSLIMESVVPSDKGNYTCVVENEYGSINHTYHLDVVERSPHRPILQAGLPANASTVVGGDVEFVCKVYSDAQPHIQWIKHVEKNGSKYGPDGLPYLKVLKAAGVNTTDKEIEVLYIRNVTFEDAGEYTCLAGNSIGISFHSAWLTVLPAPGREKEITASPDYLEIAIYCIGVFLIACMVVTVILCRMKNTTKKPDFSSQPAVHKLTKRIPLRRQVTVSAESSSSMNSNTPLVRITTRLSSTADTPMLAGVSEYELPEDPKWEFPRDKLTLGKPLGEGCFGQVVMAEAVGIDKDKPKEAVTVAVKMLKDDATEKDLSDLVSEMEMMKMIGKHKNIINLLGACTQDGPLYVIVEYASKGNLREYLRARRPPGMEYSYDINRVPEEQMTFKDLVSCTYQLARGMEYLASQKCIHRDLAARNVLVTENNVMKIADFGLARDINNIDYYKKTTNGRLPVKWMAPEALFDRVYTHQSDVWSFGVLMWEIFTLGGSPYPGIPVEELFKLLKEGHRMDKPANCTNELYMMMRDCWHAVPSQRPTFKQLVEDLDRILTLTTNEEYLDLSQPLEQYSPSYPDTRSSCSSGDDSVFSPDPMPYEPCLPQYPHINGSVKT
Sequence of CYP2C9 (P11712 whole entry): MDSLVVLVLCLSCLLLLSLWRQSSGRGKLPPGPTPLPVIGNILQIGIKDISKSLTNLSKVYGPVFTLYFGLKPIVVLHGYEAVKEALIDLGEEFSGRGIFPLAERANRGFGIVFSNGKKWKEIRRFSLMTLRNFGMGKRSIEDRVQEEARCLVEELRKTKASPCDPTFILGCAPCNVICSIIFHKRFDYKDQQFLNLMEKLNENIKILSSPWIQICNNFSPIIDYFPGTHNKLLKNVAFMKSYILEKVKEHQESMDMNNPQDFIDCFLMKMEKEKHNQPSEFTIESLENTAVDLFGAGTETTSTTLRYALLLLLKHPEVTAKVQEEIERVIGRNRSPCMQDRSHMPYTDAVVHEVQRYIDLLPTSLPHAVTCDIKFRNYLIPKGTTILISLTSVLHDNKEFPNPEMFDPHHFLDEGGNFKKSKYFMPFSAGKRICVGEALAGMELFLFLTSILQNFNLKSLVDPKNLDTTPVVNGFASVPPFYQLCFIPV
Sequence of Fibroblast growth factor receptor 3 (Homo sapiens, UniProt P22607, K650E) (P22607 23-806 K650E limits assumed): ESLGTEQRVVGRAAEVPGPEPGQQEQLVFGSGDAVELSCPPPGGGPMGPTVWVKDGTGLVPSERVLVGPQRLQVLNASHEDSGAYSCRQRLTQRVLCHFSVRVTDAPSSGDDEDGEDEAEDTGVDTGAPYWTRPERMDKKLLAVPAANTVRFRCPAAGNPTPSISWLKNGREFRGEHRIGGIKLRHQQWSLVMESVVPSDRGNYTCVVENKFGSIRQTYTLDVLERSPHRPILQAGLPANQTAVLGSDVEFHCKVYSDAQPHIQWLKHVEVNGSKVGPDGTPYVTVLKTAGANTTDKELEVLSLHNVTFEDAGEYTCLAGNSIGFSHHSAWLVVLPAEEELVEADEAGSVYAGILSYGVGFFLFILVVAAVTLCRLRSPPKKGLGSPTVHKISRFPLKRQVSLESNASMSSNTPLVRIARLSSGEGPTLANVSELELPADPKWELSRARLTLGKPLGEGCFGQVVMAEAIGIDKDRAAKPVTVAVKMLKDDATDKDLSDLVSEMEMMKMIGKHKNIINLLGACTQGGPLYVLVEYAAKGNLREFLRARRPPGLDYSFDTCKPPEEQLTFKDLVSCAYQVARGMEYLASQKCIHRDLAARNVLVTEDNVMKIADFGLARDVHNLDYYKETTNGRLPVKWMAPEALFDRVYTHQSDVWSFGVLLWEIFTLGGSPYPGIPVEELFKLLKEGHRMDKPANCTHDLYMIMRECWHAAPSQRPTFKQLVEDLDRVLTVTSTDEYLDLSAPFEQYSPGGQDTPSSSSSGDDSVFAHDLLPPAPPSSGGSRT
Sequence of Fibroblast growth factor receptor 3 (Homo sapiens, UniProt P22607, V555M) (P22607 23-806 V555M limits assumed): as the sequence (P22607 23-806 K650E limits assumed) above, with V533M, E628K counted along it
Sequence of Fibroblast growth factor receptor 3 (Homo sapiens, UniProt P22607, K650M) (P22607 23-806 K650M limits assumed): as the sequence (P22607 23-806 K650E limits assumed) above, with E628M counted along it

COc1cc(N2CCOCC2)ccc1Nc1ncnc(-c2cccnc2Nc2c(Cl)c(OC)cc(OC)c2Cl)n1
GI50 [1]: 31.2 µM
GI50 [2]: > 50 µM
GI50 [3]: > 5 µM
GI50 [4]: > 5 µM
IC50 [5]: 1.55 µM
inhibition [6]: < 50%
inhibition [7]: < 50%
GI50 [8]: > 5 µM
inhibition [9]: < 50%
GI50 [10]: > 50 µM

COc1cc(OC)c(Cl)c(Nc2ncccc2-c2ncnc(Nc3cnn(C4CCN(C(C)C)CC4)c3)n2)c1Cl
activity at 10 µM [11]: 17.6%
activity at 10 µM [12]: 81%
GI50 [1]: 0.547 µM
GI50 [2]: 0.034 µM
activity at 10 µM [13]: 44.6%
activity at 10 µM [14]: 79.1%
GI50 [3]: 0.183 µM
IC50 [15]: 0.0048 µM
IC50 [16]: < 0.0005 µM
GI50 [4]: > 5 µM
activity at 10 µM [17]: 75.9%
IC50 [5]: < 0.0005 µM
IC50 [18]: 0.0223 µM
remaining at 0.5 h, 1 µM [19]: 21.8%
GI50 [20]: 0.749 µM
GI50 [8]: 0.005 µM
IC50 [21]: 0.189 µM
IC50 [22]: < 0.0005 µM
IC50 [23]: 0.0073 µM
GI50 [10]: 0.021 µM
IC50 [24]: < 0.0005 µM
GI50 [25]: 1.68 µM
remaining at 0.5 h, 1 µM [26]: 11.5%

COc1ccccc1Nc1ncnc(-c2cccnc2Nc2c(Cl)c(OC)cc(OC)c2Cl)n1
GI50 [1]: 31.2 µM
GI50 [2]: > 50 µM
GI50 [3]: > 5 µM
GI50 [4]: > 5 µM
IC50 [5]: 0.275 µM
inhibition [6]: < 50%
inhibition [7]: < 50%
GI50 [8]: 4.12 µM
inhibition [9]: < 50%
GI50 [10]: 5.55 µM

COc1cc(OC)c(Cl)c(Nc2ncccc2-c2ncnc(Nc3cnn(C4CCNCC4)c3)n2)c1Cl
activity at 10 µM [11]: 44.1%
activity at 10 µM [12]: > 100%
GI50 [1]: 0.977 µM
GI50 [2]: 0.111 µM
activity at 10 µM [13]: 51%
activity at 10 µM [14]: 89.9%
GI50 [3]: 1.02 µM
remaining at 0.5 h, 1 µM [27]: 65.4%
IC50 [15]: 0.0109 µM
bioavailability [28]: 13.2%
IC50 [16]: < 0.0005 µM
GI50 [4]: > 5 µM
activity at 10 µM [17]: 72.8%
remaining at 0.5 h, 1 µM [29]: 66.9%
IC50 [5]: 0.00098 µM
IC50 [18]: 0.268 µM
Activity [30]: Non-Toxic
remaining at 0.5 h, 1 µM [19]: 62.6%
GI50 [20]: 2.59 µM
GI50 [8]: 0.01 µM
IC50 [21]: 0.727 µM
IC50 [22]: < 0.0005 µM
IC50 [23]: 0.0263 µM
GI50 [10]: 0.029 µM
IC50 [24]: 0.00253 µM
GI50 [25]: 3.65 µM
remaining at 0.5 h, 1 µM [26]: 62.1%

COc1cc(OC)c(Cl)c(Nc2ncccc2-c2ncnc(Nc3ccc(N4C[C@@H](C)N[C@@H](C)C4)cc3)n2)c1Cl
activity at 10 µM [11]: 13.3%
activity at 10 µM [12]: 77.3%
GI50 [1]: 0.428 µM
GI50 [2]: 0.237 µM
activity at 10 µM [13]: 31.8%
activity at 10 µM [14]: 62.3%
GI50 [3]: 0.733 µM
remaining at 0.5 h, 1 µM [27]: 11.7%
IC50 [15]: 0.0261 µM
IC50 [16]: < 0.0005 µM
GI50 [4]: 1.53 µM
activity at 10 µM [17]: 72.6%
remaining at 0.5 h, 1 µM [29]: 19%
IC50 [5]: 0.0006 µM
IC50 [18]: 0.116 µM
remaining at 0.5 h, 1 µM [19]: 10.2%
GI50 [20]: 0.354 µM
GI50 [8]: 0.005 µM
IC50 [21]: 0.363 µM
IC50 [22]: < 0.0005 µM
IC50 [23]: 0.027 µM
GI50 [10]: 0.015 µM
IC50 [24]: 0.00052 µM
GI50 [25]: 0.52 µM
remaining at 0.5 h, 1 µM [26]: 44.8%

Cc1nc2ccc(-n3ncc(C(=O)c4cc5ccccc5[nH]4)c3N)cc2[nH]1 [FGFR INHIBITOR DEBIO 1347]
GI50 [31]: 8.24 µM

CCN1CCN(c2cccc(Nc3ncnc(-c4cccnc4Nc4c(Cl)c(OC)cc(OC)c4Cl)n3)c2)CC1
GI50 [1]: 1.11 µM
GI50 [2]: 0.19 µM
GI50 [3]: 0.686 µM
IC50 [15]: 0.0443 µM
IC50 [16]: < 0.0005 µM
GI50 [4]: 3.63 µM
IC50 [5]: 0.00058 µM
IC50 [18]: 0.134 µM
GI50 [20]: 0.994 µM
GI50 [8]: 0.018 µM
IC50 [21]: 0.578 µM
IC50 [22]: < 0.0005 µM
IC50 [23]: 0.101 µM
GI50 [10]: 0.085 µM
IC50 [24]: 0.0006 µM
GI50 [25]: 1.69 µM

COc1cc(OC)c(Cl)c(Nc2ncccc2-c2ncnc(Nc3ccc(N4CCOCC4)nc3OC)n2)c1Cl
GI50 [1]: 31 µM
GI50 [2]: > 50 µM
GI50 [3]: > 5 µM
GI50 [4]: > 5 µM
IC50 [5]: 1.71 µM
inhibition [6]: < 50%
inhibition [7]: < 50%
GI50 [8]: > 5 µM
inhibition [9]: < 50%
GI50 [10]: > 50 µM
